Test results from ChEMBL document CHEMBL3997815, “Influence of substituent heteroatoms on the cytoprotective properties of pyrimidinol antioxidants” (Bioorg Med Chem, 2017).
Activity calls are given as the source filed them. The calls are words filed in the database; no cut-off is given here.

Experiments:
Lymphocyte [1] = test: Antioxidant activity in FRDA patient derived lymphocytes assessed as inhibition of DEM-mediated lipid peroxidation at 0.1 to 2.5 uM pretreated for 16 hrs followed by DEM addition measured after 120 mins by C11-BODIPY581/591 probe-based FACS analysis; type: functional, cell-based; conditions: Homo sapiens
Lymphocyte [2] = test: Antioxidant activity in FRDA patient derived lymphocytes assessed as inhibition of DEM-mediated reactive oxygen species formation at 0.1 to 2.5 uM pretreated for 16 hrs followed by DEM addition measured after 80 mins by DCFH-DA dye-based flow cytometric analysis; type: functional, cell-based; conditions: Homo sapiens
Lymphocyte [3] = test: Cytoprotective activity in DEM-treated FRDA patient derived lymphocytes assessed as preservation of mitochondrial inner membrane potential at 2.5 uM pretreated for 16 hrs followed by DEM addition measured after 120 mins by TMRM dye-based flow cytometric analysis; type: functional, cell-based; conditions: Homo sapiens
Lymphocyte [4] = test: (§1) Cytoprotective activity against DEM-induced oxidative stress in FRDA patient derived lymphocytes assessed as increase in cell viability at 0.1 to 2.5 uM pretreated for 16 hrs followed by DEM addition measured after 6 hrs by calcein acetoxy-methyl-ester/ethidium homodimer-1 staining-based flow cytometric analysis; type: functional; conditions: Homo sapiens
[5] = Metabolic stability in bovine liver microsomes assessed as compound recovery at 25 uM after 30 mins in presence of beta-NADPH by HPLC method; type: ADME, Bos taurus, microsome; conditions: cattle, read-out: Drug recovery
Lymphocyte [6] = test: Antioxidant activity in FRDA patient derived lymphocytes assessed as inhibition of DEM-mediated reactive oxygen species formation at 2.5 uM pretreated for 16 hrs followed by DEM addition measured after 80 mins by DCFH-DA dye-based flow cytometric analysis; type: functional, cell-based; conditions: Homo sapiens
Lymphocyte [7] = test: as §1, with “at” for “at 0.1 to”; type: functional; conditions: Homo sapiens
Lymphocyte [8] = test: Antioxidant activity in FRDA patient derived lymphocytes assessed as inhibition of DEM-mediated lipid peroxidation at 0.1 to 0.5 uM pretreated for 16 hrs followed by DEM addition measured after 120 mins by C11-BODIPY581/591 probe-based FACS analysis; type: functional, cell-based; conditions: Homo sapiens
Lymphocyte [9] = test: Cytoprotective activity in DEM-treated FRDA patient derived lymphocytes assessed as preservation of mitochondrial inner membrane potential at 0.5 uM pretreated for 16 hrs followed by DEM addition measured after 120 mins by TMRM dye-based flow cytometric analysis; type: functional, cell-based; conditions: Homo sapiens
Lymphocyte [10] = test: Cytoprotective activity in FRDA patient derived lymphocytes cultured in glucose-free media supplemented with galactose assessed as total intracellular ATP levels at 1 uM after 48 hrs by luciferin-luciferase reaction-based bioluminescence assay relative to control; type: functional, Homo sapiens
Lymphocyte [11] = test: Cytoprotective activity in FRDA patient derived lymphocytes cultured in glucose-free media supplemented with galactose assessed as total intracellular ATP levels at 5 uM after 48 hrs by luciferin-luciferase reaction-based bioluminescence assay relative to control; type: functional, Homo sapiens
Lymphocyte [12] = test: Cytoprotective activity in FRDA patient derived lymphocytes cultured in glucose-free media supplemented with galactose assessed as total intracellular ATP levels at 25 uM after 48 hrs by luciferin-luciferase reaction-based bioluminescence assay relative to control; type: functional, Homo sapiens

Structure (SMILES) | inhibition (Lymphocyte [1]) | inhibition (Lymphocyte [2]) | Activity (Lymphocyte [3]) | Activity (Lymphocyte [4]) | remaining at 0.5 h, 25 µM [5] [%] | other results
Cc1nc(N2CCC2)nc(OC2CCC2)c1O | inactive | – | – | – | – | –
CCCCCCCCCCCCCCCCc1nc(OC2CCC2)nc(N2CCC2)c1O | Active | Active | Active | Active | 63 | –
CCCCCCCCCCCCCCc1nc(N2CCC2)nc(N2CCC2)c1O | inactive | – | Active | Active | 63 | –
CCCCCCCCCCCCCCCCc1nc(OC2CCC2)nc(OC2CCC2)c1O | inactive | – | – | – | 60 | –
CCCCCCCCCCCCCCc1nc(OC2CCC2)nc(N2CCC2)c1O | Active | Active | Active | Active | 77 | –
Cc1nc(OC2CCC2)nc(N2CCC2)c1O | inactive | – | – | – | – | –
CCCCCCCCCCCCCCc1nc(OC2CCC2)nc(OC2CCC2)c1O | Active | – | Active | – | 72 | inhibition (Lymphocyte [6]): Active; Activity (Lymphocyte [7]): Active; inhibition (Lymphocyte [8]): inactive
CCCCCCCCCCCCCCCCc1nc(N2CCC2)nc(OC2CCC2)c1O | Active | Active | Active | Active | – | –
Cc1nc(N2CCC2)nc(N2CCC2)c1O | inactive | – | – | – | – | –
Cc1nc(OC2CCC2)nc(OC2CCC2)c1O | inactive | – | – | – | – | –
COC1=C(OC)C(=O)C(CCCCCCCCCCO)=C(C)C1=O [IDEBENONE] | Active | – | Active | – | 61 | Activity (Lymphocyte [9]): Active; Activity (Lymphocyte [10]): 98%; Activity (Lymphocyte [11]): 73%; Activity (Lymphocyte [12]): 3%
CCCCCCCCCCCCCCc1nc(N2CCC2)nc(OC2CCC2)c1O | Active | Active | Active | Active | 63 | –
CCCCCCCCCCCCCCCCc1nc(N2CCC2)nc(N2CCC2)c1O | inactive | – | Active | Active | 62 | –
